# From patent US20220160703A1, “TUMOR-SELECTIVE COMBINATION THERAPY” (The Board of Regents of The University of Texas System, priority 2019, published 2022)
# Key:
# [1] = system: TC-1 tumor; test: TC-1 subcutaneous tumor model; format: in vivo
# Protocol: (FIG. 2A) MC38 cells were subcutaneously transplanted into C57BL/6 WT (n=5-6/group) and Rag1 KO mice (n=5/group), respectively. Tumor bearing mice were treated with β-lap (0.3 mg, i.t.) every other day for four times. […] (FIG. 2B) MC38 tumor bearing C57BL/6 mice (n=5/group) were treated with β-lap (0.3 mg, i.t.) every other day for four times. For CD8^+ T cell depletion, 200 μg of anti-CD8 antibodies were intraperitoneally injected four times at three days interval during the treatment. (FIG. 2C) TC-1 tumor bearing C57BL/6 mice (n=4-5/group) were treated with β-lap (0.1 mg, i.t.) for four times with or without anti-CD8 antibodies. […] (FIG. 2E) 2×10^6 A549 cells were subcutaneously injected into C57BL/6 Rag1^−/− mice (n=5/group for vehicle and β-lap; n=7/group for vehicle+OT-1 and β-lap+OT-1). 30 days later, the mice were i.v. adoptively transfected with 2×10^6 lymph node cells from OT-1 transgenic mice. On the following day, tumor-bearing mice were intratumorally treated with β-lap (0.2 mg) every other day for 4 times. (FIG. 2F) A549 cells were subcutaneously injected into NSG-SGM3 (n=5/group) or NSG-SGM3 harboring human CD34^+ hematopoietic stem cells (n=5/group for Hu-NSG vehicle; n=6/group for Hu-NSG β-lap). Tumor bearing mice were treated with β-lap (0.2 mg, i.t.) every other day for four times. Tumor growth was measured twice a week.
# (FIG. 15A) C57BL/6J WT or rag−/− mice (n=5/group) were inoculated subcutaneously (s.c.) with 6×10^5 MC38 cells and treated intratumorally (i.t.) with 0.15 mg of IB-DNQ or vehicle on day 10, day 12, day 14 and day 16. (FIG. 15B) C57BL/6J WT or rag−/− mice (n=5/group) were inoculated subcutaneously (s.c.) with 1×10^5 TC-1 cells and treated intratumorally (i.t.) with 0.15 mg of IB-DNQ or vehicle on day 10, day 12, day 14 and day 16. Tumor diameters were measured by calipers twice a week. Tumor volume is presented as mean±SD. *p<0.05, **p<0.01, ***P<0.001.
# FIGS. 17A-I (related to FIGS. 1A-J). […] (FIG. 17A) NQO1 expression in different murine cancer cell lines was determined by western blotting assay. […] (FIG. 17C) MC38 cells (NQO1 WT or KO) were treated with β-lap for 3 hr followed by washing and replacing fresh medium. Cell viability was determined by Sulforhodamine B (SRB) Assay 48 hr later. […] (FIG. 17E, FIG. 17F) B16 cells (NQO1 null or stable overexpression) were treated with β-lap with or without dicoumarol (DIC, 50 μM) for 3 hr followed by washing and replacing medium. Cell viability was determined by SRB Assay 48 hr later. […] Catalase (1000 U/ml) was added and cell viability was assessed 48 hr later. (FIG. 17H) C57BL/6 mice (n=5/group) were transplanted with TC-1 cells, and intratumorally treated with β-lap (0.1 or 0.3 mg) every other day for four times. Tumor growth was monitored twice a week. […] Data are shown as mean±SEM. **P<0.01, ***P<0.001, ****P<0.0001 determined by unpaired student t-test (FIG. 17G) or two-way ANOVA (FIG. 17H and FIG. 17I).
# 6×10^5 MC38 or 8×10^5 MC38 NQO1 KO cells were subcutaneously transplanted into Rag1^−/−, C57BL/6, and NSG mice, respectively (n=5/group). Tumor-bearing mice were treated with IB-DNQ (12 mg/kg, i.t.) or 20% HPβCD (Vehicle) every other day for four times after tumor volumes reached to 50 mm^3.
# [2] = system: B16 cells stably harboring a pCMV-NQO1 expression vector; test: Cell survival of NQO1 overexpressing B16 cells; format: cell-based, murine; settings: 3 hr exposure, survival 48 hr later
# Protocol: (FIG. 1A) NQO1 positive tumor cell lines MC38, TC-1 and Ag104Ld and NQO1 negative cell lines Panc02 and B16 grown in 48-well plates were treated with β-lap (0-8 μM) for a 3 hr followed by washing and replacing medium. Cell viability was determined by Sulforhodamine B (SRB) Assay 4 days later. […] (FIG. 1C) MC38 cells with CRISPR-based NQO1 Knockout (MC38 NQO1KO #5) planted in 96-well plates were exposed to β-lap for 3 hr and cell survival was assessed 48 hr later. […] (FIG. 1E) MC38 cells were exposed to a lethal dose of β-lap (4 μM) for indicated times, then stained with 7-AAD and Annexin V followed by flow cytometry analysis. […] (FIG. 1H) MC38 and B16 NQO1 #1 cells were exposed to β-lap for a 3 hr. Catalase (1000 U/ml) was added and cell survival was assessed 48 hr later. […] Tumor growth was monitored twice a week.
# FIGS. 17A-I (related to FIGS. 1A-J). […] (FIG. 17A) NQO1 expression in different murine cancer cell lines was determined by western blotting assay. […] Cell viability was determined by Sulforhodamine B (SRB) Assay 48 hr later. […] Cell viability was determined by SRB Assay 48 hr later. […] Catalase (1000 U/ml) was added and cell viability was assessed 48 hr later. […] Tumor growth was monitored twice a week. […] Data are shown as mean±SEM. **P<0.01, ***P<0.001, ****P<0.0001 determined by unpaired student t-test (FIG. 17G) or two-way ANOVA (FIG. 17H and FIG. 17I). […]
smiles,measurement,setting,value
"CC1(C)CCC2=C(O1)c1ccccc1C(=O)C2=O [β-lap, β-lapachone]",tumor response in WT mice,[1]; 3 doses of β-lap (0.3 mg i.t.),tumor regression occurred
same,tumor response in rag−/− mice,[1]; 3 doses of β-lap (0.3 mg i.t.),but not in adaptive immune-deficient rag^−/− mice
same,antitumor efficacy in STING deficient mice,[1]; β-lap 0.3 mg i.t.,significantly impaired the antitumor efficacy
same,tumor growth,[1]; β-lap 0.1 or 0.3 mg i.t. every other day four times,significant tumor suppression
same,tumor growth inhibition with anti-CD8 antibody,[1]; β-lap + anti-CD8 antibody versus β-lap alone,complete failure of tumor growth inhibition
same,response to β-lap (cell survival),[2],sensitivity to β-lap
